Drawing on ChEMBL document CHEMBL5393441, “Bicyclic heterocyclic compounds as inhibitors ofbcdin3d activity” (2022), this text covers IC50, Activity and inhibition for twelve compounds.

Molecules are shown by their SMILES. Calls of active or inactive are those of the source. The rule behind the calls is not given here.

The target in experiment [1] is T1, RNA 5'-monophosphate methyltransferase (Homo sapiens, UniProt Q7Z5W3).
T1 sequence (Q7Z5W3 whole entry): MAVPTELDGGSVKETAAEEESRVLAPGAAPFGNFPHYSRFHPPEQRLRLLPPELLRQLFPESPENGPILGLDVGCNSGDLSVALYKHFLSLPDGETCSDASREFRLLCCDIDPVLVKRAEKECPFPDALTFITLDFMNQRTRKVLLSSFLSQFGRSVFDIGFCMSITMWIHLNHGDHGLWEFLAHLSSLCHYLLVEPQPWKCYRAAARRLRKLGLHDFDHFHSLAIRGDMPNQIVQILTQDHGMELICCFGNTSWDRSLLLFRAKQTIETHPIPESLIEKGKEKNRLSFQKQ
Nature of the experiment: Binding affinity towards N-terminal ePL-tagged BCDIN3D (unknown origin) transfected in human A549 cells preincubated for 1 hr and measured by InCellPulse thermal stability assay. The class given is cell-based.

Experiment [2] addresses T1, RNA 5'-monophosphate methyltransferase. Nature of the experiment: Inhibition of BCDIN3D (unknown origin) using mini-helix and SAM as substrate incubated for 1 hr by RapidFire High Throughput mass spectrometry.
The next experiment has as its system Mus musculus. Nature of the experiment: Antiinflammatory activity in sheep red blood cells (SRBCs)-induced delayed hypersensitivity male CD-1/ICR mouse model at 30 mg/kg administered once daily for 7 days. The following applies: time 7.0 day. The class given is functional, organism-based.
The target of experiment [3] is T2, RNA 5'-monophosphate methyltransferase (Homo sapiens) (UniProt Q7Z5W3).
T2 sequence (whole entry): T1 sequence (Q7Z5W3 whole entry)
The experiment is described as follows: Inhibition of BCDIN3D in activated CD4+ T cells isolated from human PBMC stimulated with anti-CD3/CD28 and restimulated with PMA and ionomycin for 4 hrs in the presence of brefeldin A assessed as reduction in IFN-gamma production at 100 to 500 nM. In kind it is cell-based. The following applies: T cell, dose 100-500 nM.

By IC50 is commonly meant the midpoint of a concentration-inhibition curve. Read a low IC50 as greater potency in that assay. As to `Cn1ncc2c(NC3CCC(F)(F)C3)nc(NC[C@H](N)c3ccccc3)nc21` (stereo partly drawn), the figures for the IC50 in experiment [1] and in experiment [2] were 0.58 µM and 0.45 µM, respectively. Consider `COc1cc(Nc2nc(NCC3(N)CC3)nc3c2cnn3C)cc(OC)c1`, for which the IC50 turned out to be 2.99 µM in experiment [1] and 1.26 µM in experiment [2].

On to `Cn1ncc2c(Nc3ccc(Cl)cc3)nc(NC[C@H](N)c3ccccc3)nc21`, for which, in the experiment with Mus musculus, the result was Active. The inhibition result in experiment [3] is “Active”. Turning to `Cn1ncc2c(NCC3CC(C(F)(F)F)C3)nc(NC[C@H](N)c3ccccc3)nc21` (stereo partly drawn), the IC50 turned out to be 0.034 µM in experiment [1] and 0.017 µM in experiment [2]. Regarding `Cn1ncc2c(Nc3cc(F)cc(F)c3)nc(NCC3(N)CC3)nc21`, the values for the IC50 in experiment [1] and in experiment [2] were 4.65 µM and 1 µM, respectively. Regarding `CNc1nc(NC[C@](C)(N)c2ccccc2)nc2c1cnn2C`, the IC50 worked out at 10.8 µM in experiment [1] and 7.65 µM in experiment [2]. The corresponding values for `Cc1ccc(CNc2nc(NCCN)nc3c2cnn3C)cc1Cl` are 6.46 µM and 1.65 µM. Take `Cn1ncc2c(Nc3ccc(C(F)(F)F)cc3)nc(NCC3(N)COC3)nc21`: in experiment [1], the concentration for half-maximal inhibition (IC50) amounted to 6.67 µM. This counts as single-digit micromolar. Take `Cc1cc(Nc2nc(NCC(N)CF)nc3c2cnn3C)ccc1Cl` (stereo not drawn): the values for the IC50 in experiment [1] and in experiment [2] were 5.5 µM and 6.17 µM, respectively. As to `Cn1ncc2c(Nc3ccc(C(F)(F)F)nc3)nc(NC[C@@](C)(N)c3ccccc3)nc21`, the IC50 in experiment [1] stood at 0.133 µM; in experiment [2], 0.0381 µM. For `Cn1ncc2c(NC(C)(C)C)nc(NC[C@H](N)c3ccccc3)nc21`, in the experiment with Mus musculus, the outcome was Active. Besides, the inhibition entry in experiment [3] is “Active”.

Turning to `Cn1ncc2c(NC34CC(C3)C4)nc(NCC(N)c3ccccc3)nc21` (stereo not drawn), the IC50 turned out to be 0.889 µM in experiment [1] and 0.189 µM in experiment [2].
